According to patent US5948436A, “Pharmaceutical composition” (Abbott Laboratories, priority 1995, dated 1999):

Tests used:
[1] = Oral bioavailability studies in dogs (AUC after oral vs. intravenous dose); parameters: species or system dog (beagle dogs, mixed sexes); conditions: dog, in vivo, 5 mg/kg
Method: Each dog received a single solid dosage form corresponding to a 5 mg/kg dose of the drug.

[2] = target: HIV-1 protease (HIV-1 M:B_HXB2R, UniProt P04585); type: biochemical
[3] = system: HIV-2 protease; test: Inhibition of HIV-2 protease; type: biochemical

CC(C)c1nc(CN(C)C(=O)N[C@H](C(=O)N[C@@H](Cc2ccccc2)C[C@H](O)[C@H](Cc2ccccc2)NC(=O)OCc2cncs2)C(C)C)cs1 [compound III, (2S,3S,5S)-5-(N-(N-((N-Methyl-N-((2-isopropyl-4-thiazolyl)methyl)-amino)carbonyl)valinyl)amino)-2-(N-((5-thiazolyl)methoxycarbonyl)amino)-1,6-diphenyl-3-hydroxyhexane]
bioavailability [1]: < 2%

CC(C)c1nc(CN(C)C(=O)NC(C(=O)NC(Cc2ccccc2)CC(O)C(Cc2ccccc2)NC(=O)OCc2cncs2)C(C)C)cs1 (stereo not drawn) [formula II]
inhibition of HIV-1 protease [2]: especially effective | inhibition of HIV-2 protease [3]: especially effective
